{"source": "PubChem BioAssay (NCI)", "assay_in_all_cases": "DTP human tumour cell line panel, 48 h", "key": {"[1]": {"system": "SK-MEL-5 melanoma"}, "[2]": {"system": "MDA-MB-468 breast"}, "[3]": {"system": "HT29 colon"}, "[4]": {"system": "DU-145 prostate"}, "[5]": {"system": "SF-539 CNS"}, "[6]": {"system": "SW-620 colon"}, "[7]": {"system": "MCF7 breast"}, "[8]": {"system": "TK-10 renal"}, "[9]": {"system": "UACC-62 melanoma"}, "[10]": {"system": "OVCAR-4 ovarian"}, "[11]": {"system": "SN12C renal"}, "[12]": {"system": "HS 578T breast"}, "[13]": {"system": "LOX IMVI melanoma"}, "[14]": {"system": "KM12 colon"}, "[15]": {"system": "OVCAR-3 ovarian"}, "[16]": {"system": "SK-MEL-2 melanoma"}, "[17]": {"system": "HCC-2998 colon"}, "[18]": {"system": "ACHN renal"}, "[19]": {"system": "SF-295 CNS"}, "[20]": {"system": "SK-MEL-28 melanoma"}, "[21]": {"system": "COLO 205 colon"}, "[22]": {"system": "BT-549 breast"}, "[23]": {"system": "HCT-15 colon"}, "[24]": {"system": "MDA-MB-435"}, "[25]": {"system": "K-562 leukemia"}, "[26]": {"system": "OVCAR-5 ovarian"}, "[27]": {"system": "A498 renal"}, "[28]": {"system": "NCI-H226 lung"}, "[29]": {"system": "NCI-H23 lung"}, "[30]": {"system": "MOLT-4 leukemia"}, "[31]": {"system": "M14 melanoma"}, "[32]": {"system": "HOP-62 NSCLC"}, "[33]": {"system": "SF-268 CNS"}, "[34]": {"system": "A549 NSCLC"}, "[35]": {"system": "MDA-MB-231 breast"}, "[36]": {"system": "SNB-19 CNS"}, "[37]": {"system": "MALME-3M melanoma"}, "[38]": {"system": "RXF 393 renal"}, "[39]": {"system": "SR leukemia"}, "[40]": {"system": "HCT-116 colon"}, "[41]": {"system": "786-0 renal"}, "[42]": {"system": "NCI-H460 lung"}, "[43]": {"system": "SK-OV-3 ovarian"}, "[44]": {"system": "RPMI-8226 leukemia"}, "[45]": {"system": "OVCAR-8 ovarian"}, "[46]": {"system": "UO-31 renal"}, "[47]": {"system": "UACC-257 melanoma"}, "[48]": {"system": "CAKI-1 renal"}, "[49]": {"system": "EKVX NSCLC"}, "[50]": {"system": "PC-3 prostate"}, "[51]": {"system": "IGROV1 ovarian"}, "[52]": {"system": "CCRF-CEM leukemia"}}, "note": "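Exposure lasted 48 hours, with cells grown in 96-well plates and compounds tested at five concentrations. GI50 is the concentration that inhibits growth by half. At the TGI there is no net growth.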", "data": [{"compound": "COc1ccc2[nH]cc(-c3cc4nc(-c5cn(C)c6ncc(Br)cc56)cc(N)n4n3)c2c1", "values": [{"measurement": "GI50", "setting": "[1]", "value": 1780, "unit": "nM"}, {"measurement": "TGI", "setting": "[1]", "value": 3340, "unit": "nM"}, {"measurement": "GI50", "setting": "[2]", "value": 1420, "unit": "nM"}, {"measurement": "TGI", "setting": "[2]", "value": 2860, "unit": "nM"}, {"measurement": "GI50", "setting": "[3]", "value": 1960, "unit": "nM"}, {"measurement": "TGI", "setting": "[3]", "value": 3950, "unit": "nM"}, {"measurement": "GI50", "setting": "[4]", "value": 1780, "unit": "nM"}, {"measurement": "TGI", "setting": "[4]", "value": 3640, "unit": "nM"}, {"measurement": "GI50", "setting": "[5]", "value": 1640, "unit": "nM"}, {"measurement": "TGI", "setting": "[5]", "value": 3030, "unit": "nM"}, {"measurement": "GI50", "setting": "[6]", "value": 1750, "unit": "nM"}, {"measurement": "TGI", "setting": "[6]", "value": 3350, "unit": "nM"}, {"measurement": "GI50", "setting": "[7]", "value": 1670, "unit": "nM"}, {"measurement": "TGI", "setting": "[7]", "value": 3050, "unit": "nM"}, {"measurement": "GI50", "setting": "[8]", "value": 2480, "unit": "nM"}, {"measurement": "TGI", "setting": "[8]", "value": 6390, "unit": "nM"}, {"measurement": "GI50", "setting": "[9]", "value": 1550, "unit": "nM"}, {"measurement": "TGI", "setting": "[9]", "value": 3040, "unit": "nM"}, {"measurement": "GI50", "setting": "[10]", "value": 1840, "unit": "nM"}, {"measurement": "TGI", "setting": "[10]", "value": 3790, "unit": "nM"}, {"measurement": "GI50", "setting": "[11]", "value": 1700, "unit": "nM"}, {"measurement": "TGI", "setting": "[11]", "value": 3300, "unit": "nM"}, {"measurement": "GI50", "setting": "[12]", "value": 1800, "unit": "nM"}, {"measurement": "TGI", "setting": "[12]", "value": 4580, "unit": "nM"}, {"measurement": "GI50", "setting": "[13]", "value": 1650, "unit": "nM"}, {"measurement": "TGI", "setting": "[13]", "value": 3110, "unit": "nM"}, {"measurement": "GI50", "setting": "[14]", "value": 1990, "unit": "nM"}, {"measurement": "TGI", "setting": "[14]", "value": 4420, "unit": "nM"}, {"measurement": "GI50", "setting": "[15]", "value": 1810, "unit": "nM"}, {"measurement": "TGI", "setting": "[15]", "value": 3490, "unit": "nM"}, {"measurement": "GI50", "setting": "[16]", "value": 1680, "unit": "nM"}, {"measurement": "TGI", "setting": "[16]", "value": 3250, "unit": "nM"}, {"measurement": "GI50", "setting": "[17]", "value": 1740, "unit": "nM"}, {"measurement": "TGI", "setting": "[17]", "value": 3170, "unit": "nM"}, {"measurement": "GI50", "setting": "[18]", "value": 1460, "unit": "nM"}, {"measurement": "TGI", "setting": "[18]", "value": 3350, "unit": "nM"}, {"measurement": "GI50", "setting": "[19]", "value": 1570, "unit": "nM"}, {"measurement": "TGI", "setting": "[19]", "value": 3070, "unit": "nM"}, {"measurement": "GI50", "setting": "[20]", "value": 1670, "unit": "nM"}, {"measurement": "TGI", "setting": "[20]", "value": 3080, "unit": "nM"}, {"measurement": "GI50", "setting": "[21]", "value": 1820, "unit": "nM"}, {"measurement": "TGI", "setting": "[21]", "value": 3450, "unit": "nM"}, {"measurement": "GI50", "setting": "[22]", "value": 2140, "unit": "nM"}, {"measurement": "TGI", "setting": "[22]", "value": 4670, "unit": "nM"}, {"measurement": "GI50", "setting": "[23]", "value": 1350, "unit": "nM"}, {"measurement": "TGI", "setting": "[23]", "value": 2810, "unit": "nM"}, {"measurement": "GI50", "setting": "[24]", "value": 1680, "unit": "nM"}, {"measurement": "TGI", "setting": "[24]", "value": 3210, "unit": "nM"}, {"measurement": "GI50", "setting": "[25]", "value": 2590, "unit": "nM"}, {"measurement": "TGI", "setting": "[25]", "value": "> 100000", "unit": "nM"}, {"measurement": "GI50", "setting": "[26]", "value": 1590, "unit": "nM"}, {"measurement": "TGI", "setting": "[26]", "value": 3440, "unit": "nM"}, {"measurement": "GI50", "setting": "[27]", "value": 2220, "unit": "nM"}, {"measurement": "TGI", "setting": "[27]", "value": 7010, "unit": "nM"}, {"measurement": "GI50", "setting": "[28]", "value": 1950, "unit": "nM"}, {"measurement": "TGI", "setting": "[28]", "value": 3970, "unit": "nM"}, {"measurement": "GI50", "setting": "[29]", "value": 1760, "unit": "nM"}, {"measurement": "TGI", "setting": "[29]", "value": 3510, "unit": "nM"}, {"measurement": "GI50", "setting": "[30]", "value": 2240, "unit": "nM"}, {"measurement": "TGI", "setting": "[30]", "value": "> 100000", "unit": "nM"}, {"measurement": "GI50", "setting": "[31]", "value": 1830, "unit": "nM"}, {"measurement": "TGI", "setting": "[31]", "value": 3550, "unit": "nM"}, {"measurement": "GI50", "setting": "[32]", "value": 2070, "unit": "nM"}, {"measurement": "TGI", "setting": "[32]", "value": 5490, "unit": "nM"}, {"measurement": "GI50", "setting": "[33]", "value": 1840, "unit": "nM"}, {"measurement": "TGI", "setting": "[33]", "value": 4330, "unit": "nM"}, {"measurement": "GI50", "setting": "[34]", "value": 1770, "unit": "nM"}, {"measurement": "TGI", "setting": "[34]", "value": 5070, "unit": "nM"}, {"measurement": "GI50", "setting": "[35]", "value": 1650, "unit": "nM"}, {"measurement": "TGI", "setting": "[35]", "value": 3360, "unit": "nM"}, {"measurement": "GI50", "setting": "[36]", "value": 2450, "unit": "nM"}, {"measurement": "TGI", "setting": "[36]", "value": 6630, "unit": "nM"}, {"measurement": "GI50", "setting": "[37]", "value": 1680, "unit": "nM"}, {"measurement": "TGI", "setting": "[37]", "value": 3170, "unit": "nM"}, {"measurement": "GI50", "setting": "[38]", "value": 1730, "unit": "nM"}, {"measurement": "TGI", "setting": "[38]", "value": 3230, "unit": "nM"}, {"measurement": "GI50", "setting": "[39]", "value": 2740, "unit": "nM"}, {"measurement": "TGI", "setting": "[39]", "value": "> 100000", "unit": "nM"}, {"measurement": "GI50", "setting": "[40]", "value": 1810, "unit": "nM"}, {"measurement": "TGI", "setting": "[40]", "value": 3300, "unit": "nM"}, {"measurement": "GI50", "setting": "[41]", "value": 1770, "unit": "nM"}, {"measurement": "TGI", "setting": "[41]", "value": 3290, "unit": "nM"}, {"measurement": "GI50", "setting": "[42]", "value": 1800, "unit": "nM"}, {"measurement": "TGI", "setting": "[42]", "value": 3470, "unit": "nM"}, {"measurement": "GI50", "setting": "[43]", "value": 2380, "unit": "nM"}, {"measurement": "TGI", "setting": "[43]", "value": 5640, "unit": "nM"}, {"measurement": "GI50", "setting": "[44]", "value": 2910, "unit": "nM"}, {"measurement": "TGI", "setting": "[44]", "value": "> 100000", "unit": "nM"}, {"measurement": "GI50", "setting": "[45]", "value": 1860, "unit": "nM"}, {"measurement": "TGI", "setting": "[45]", "value": 3660, "unit": "nM"}, {"measurement": "GI50", "setting": "[46]", "value": 1730, "unit": "nM"}, {"measurement": "TGI", "setting": "[46]", "value": 4160, "unit": "nM"}, {"measurement": "GI50", "setting": "[47]", "value": 1720, "unit": "nM"}, {"measurement": "TGI", "setting": "[47]", "value": 3480, "unit": "nM"}, {"measurement": "GI50", "setting": "[48]", "value": 1410, "unit": "nM"}, {"measurement": "TGI", "setting": "[48]", "value": 3540, "unit": "nM"}, {"measurement": "GI50", "setting": "[49]", "value": 1660, "unit": "nM"}, {"measurement": "TGI", "setting": "[49]", "value": 3840, "unit": "nM"}, {"measurement": "GI50", "setting": "[50]", "value": 2540, "unit": "nM"}, {"measurement": "TGI", "setting": "[50]", "value": 10300, "unit": "nM"}, {"measurement": "GI50", "setting": "[51]", "value": 1650, "unit": "nM"}, {"measurement": "TGI", "setting": "[51]", "value": 3430, "unit": "nM"}, {"measurement": "GI50", "setting": "[52]", "value": 2850, "unit": "nM"}, {"measurement": "TGI", "setting": "[52]", "value": "> 100000", "unit": "nM"}]}]}
